From patent US5294617A, “Angiotensin II receptor blocking 2,3,6 substituted quinazolinones” (American Cyanamid Company, priority 1993, dated 1994)
Several values for one entry are separate records, joined by “and”; a condition that tells them apart may be missing. Equal values may be shown once.

System: ANGIOTENSIN II (AII) VASOPRESSOR RESPONSE
Experiment: AII Challenge: angiotensin II vasopressor response in conscious spontaneously hypertensive rats
Assay type: in vivo, Conscious Male Okamoto-Aoki SHR (rat)
Conditions: 10 mg/kg i.v.; for % Inhibition / Average Change: SHR n=2; for Response After AII / Response Change / Control Before AII: individual rat, SHR
Text: By administering a compound of this invention to a rat, and then challenging with angiotensin II, a blockage of the vasopressor response is realized.
Conscious Male Okamoto-Aoki SHR, 16-20 weeks old, weighing approximately 330 g are purchased from Charles River Labs (Wilmington, Mass.). Conscious rats are restrained in a supine position with elastic tape. The area at the base of the tail is locally anesthetized by subcutaneous infiltration with 2% procaine. The ventral caudal artery and vein are isolated, and a cannula made of polyethylene (PE) 10-20 tubing (fused together by heat) is passed into the lower abdominal aorta and vena cava, respectively. The cannula is secured, heparinized (1,000 I.U./ml), sealed and the wound is closed. The animals are placed in plastic restraining cages in an upright position. The cannula is attached to a Statham P23Db pressure transducer, and pulsatile blood pressure is recorded to 10-15 minutes with a Gould Brush recorder. (Chan et al., (Drug Development Res., 18:75-94, 1989).
Angiotensin II (human sequence, Sigma Chem. Co., St. Louis, Mo.) of 0.05 and 0.1 ug/kg i.v. is injected into all rats (predosing response). Then a test compound, vehicle or a known angiotensin II antagonist is administered i.v., i.p. or orally to each set of rats. The two doses of angiotensin II are given to each rat again at 30, 60, 90, 120, 180, 240 and 300 minutes post dosing the compound or vehicle. The vasopressor response of angiotensin II is measured for the increase in systolic blood pressure in mmHg. The percentage of antagonism or blockade of the vasopressor response of angiotensin II by a compound is calculated using the vasopressor response (increase in systolic blood pressure) of angiotensin II of each rat predosing the compound as 100%. A compound is considered active if at 30 mg/kg i.v. it antagonized at least 50% of the response.

[1] = AII 0.05 mcg/kg IV, 30 min post dose
[2] = AII 0.05 mcg/kg IV, 60 min post dose
[3] = AII 0.05 mcg/kg IV, 90 min post dose
[4] = AII 0.05 mcg/kg IV, 120 min post dose
[5] = AII 0.05 mcg/kg IV, 180 min post dose
[6] = AII 0.05 mcg/kg IV, 240 min post dose
[7] = AII 0.05 mcg/kg IV, 300 min post dose
[8] = AII 0.1 mcg/kg IV, 30 min post dose
[9] = AII 0.1 mcg/kg IV, 60 min post dose
[10] = AII 0.1 mcg/kg IV, 90 min post dose
[11] = AII 0.1 mcg/kg IV, 120 min post dose
[12] = AII 0.1 mcg/kg IV, 180 min post dose
[13] = AII 0.1 mcg/kg IV, 240 min post dose
[14] = AII 0.1 mcg/kg IV, 300 min post dose
[15] = AII 0.05 mcg/kg IV, 30 min post dose, 10 mg/kg
[16] = AII 0.05 mcg/kg IV, 60 min post dose, 10 mg/kg
[17] = AII 0.05 mcg/kg IV, 90 min post dose, 10 mg/kg
[18] = AII 0.05 mcg/kg IV, 180 min post dose, 10 mg/kg
[19] = AII 0.05 mcg/kg IV, 240 min post dose, 10 mg/kg
[20] = AII 0.05 mcg/kg IV, 300 min post dose, 10 mg/kg
[21] = AII 0.1 mcg/kg IV, 30 min post dose, 10 mg/kg
[22] = AII 0.1 mcg/kg IV, 60 min post dose, 10 mg/kg
[23] = AII 0.1 mcg/kg IV, 90 min post dose, 10 mg/kg
[24] = AII 0.1 mcg/kg IV, 120 min post dose, 10 mg/kg
[25] = AII 0.1 mcg/kg IV, 180 min post dose, 10 mg/kg
[26] = AII 0.1 mcg/kg IV, 240 min post dose, 10 mg/kg
[27] = AII 0.1 mcg/kg IV, 300 min post dose, 10 mg/kg

CCCCc1nc2ccc([C@H]3C[C@H](CO)ON3C)cc2c(=O)n1Cc1ccc(-c2ccccc2-c2nnn[nH]2)cc1 (relative stereo) [Example 16, TRANS-2-butyl-6-[5-(hydroxymethyl)-2-methyl-3-isoxazolidinyl]-3-[[2'-(1H-tetrazol-5-yl)[1,1'-biphenyl]-4-yl]methyl]-4(3H)-quinazolinone]
% Inhibition [1]: 85%
Average Change [1]: 8 mmHg
% Inhibition [2]: 76%
Average Change [2]: 12.5 mmHg
% Inhibition [3]: 62%
Average Change [3]: 20 mmHg
% Inhibition [4]: 67%
Average Change [4]: 17.5 mmHg
% Inhibition [5]: 50%
Average Change [5]: 26.5 mmHg
% Inhibition [6]: 50%
Average Change [6]: 26.5 mmHg
% Inhibition [7]: 19%
Average Change [7]: 42.5 mmHg
% Inhibition [8]: 81%
Average Change [8]: 10 mmHg
% Inhibition [9]: 79%
Average Change [9]: 11.5 mmHg
% Inhibition [10]: 77%
Average Change [10]: 12.5 mmHg
% Inhibition [11]: 68%
Average Change [11]: 17.5 mmHg
% Inhibition [12]: 54%
Average Change [12]: 25 mmHg
% Inhibition [13]: 54%
Average Change [13]: 25 mmHg
% Inhibition [14]: 26%
Average Change [14]: 40 mmHg
Response After AII [15]: 198 mmHg and 190 mmHg
Response Change [15]: 3 mmHg and 13 mmHg
Response After AII [16]: 200 mmHg and 180 mmHg
Response Change [16]: 5 mmHg and 20 mmHg
Response After AII [3]: 190 mmHg
Response After AII [17]: 215 mmHg
Response Change [17]: 10 mmHg and 30 mmHg
Response After AII [4]: 210 mmHg
Response Change (AII 0.05 mcg/kg IV, 120 min post dose, 10 mg/kg): 15 mmHg and 20 mmHg
Response After AII [5]: 218 mmHg
Response After AII [18]: 195 mmHg
Response Change [18]: 23 mmHg and 30 mmHg
Response After AII [6]: 218 mmHg
Response After AII [19]: 195 mmHg
Response Change [19]: 23 mmHg and 30 mmHg
Response After AII [7]: 230 mmHg
Response After AII [20]: 225 mmHg
Response Change [20]: 35 mmHg and 50 mmHg
Response After AII [21]: 205 mmHg and 175 mmHg
Response Change [21]: 15 mmHg and 5 mmHg
Response After AII [22]: 210 mmHg and 173 mmHg
Response Change [22]: 15 mmHg and 8 mmHg
Response After AII [10]: 210 mmHg
Response After AII [23]: 185 mmHg
Response Change [23]: 10 mmHg and 15 mmHg
Response After AII [24]: 220 mmHg and 200 mmHg
Response Change [24]: 20 mmHg and 15 mmHg
Response After AII [25]: 215 mmHg and 205 mmHg
Response Change [25]: 15 mmHg and 35 mmHg
Response After AII [26]: 215 mmHg and 205 mmHg
Response Change [26]: 15 mmHg and 35 mmHg
Response After AII [27]: 250 mmHg and 230 mmHg
Response Change [27]: 30 mmHg and 50 mmHg
Control Before AII (before AII 0.05 mcg/kg IV, 30 min post dose, 10 mg/kg): 195 mmHg and 177 mmHg
Control Before AII (before AII 0.05 mcg/kg IV, 60 min post dose, 10 mg/kg): 195 mmHg and 160 mmHg
Control Before AII (before AII 0.05 mcg/kg IV, 90 min post dose, 10 mg/kg): 205 mmHg and 160 mmHg
Control Before AII (before AII 0.05 mcg/kg IV, 120 min post dose, 10 mg/kg): 195 mmHg and 190 mmHg
Control Before AII (before AII 0.05 mcg/kg IV, 180 min post dose, 10 mg/kg): 195 mmHg and 165 mmHg
Control Before AII (before AII 0.05 mcg/kg IV, 240 min post dose, 10 mg/kg): 195 mmHg and 165 mmHg
Control Before AII (before AII 0.05 mcg/kg IV, 300 min post dose, 10 mg/kg): 195 mmHg and 175 mmHg
Control Before AII (before AII 0.1 mcg/kg IV, 30 min post dose, 10 mg/kg): 190 mmHg and 170 mmHg
Control Before AII (before AII 0.1 mcg/kg IV, 60 min post dose, 10 mg/kg): 195 mmHg and 165 mmHg
Control Before AII (before AII 0.1 mcg/kg IV, 90 min post dose, 10 mg/kg): 200 mmHg and 170 mmHg
Control Before AII (before AII 0.1 mcg/kg IV, 120 min post dose, 10 mg/kg): 200 mmHg and 185 mmHg
Control Before AII (before AII 0.1 mcg/kg IV, 180 min post dose, 10 mg/kg): 200 mmHg and 170 mmHg
Control Before AII (before AII 0.1 mcg/kg IV, 240 min post dose, 10 mg/kg): 200 mmHg and 170 mmHg
Control Before AII (before AII 0.1 mcg/kg IV, 300 min post dose, 10 mg/kg): 220 mmHg and 180 mmHg
